Active and inactive are the calls of the source. No cut-off for these calls is given here. Where only a bound is given, the exact number is not on record here.

For experiment [1], the target named is T1, Histone deacetylase (Homo sapiens) (UniProt Q13547+O15379+Q9UBN7+Q92769+Q9UQL6+Q8WUI4+Q9BY41+Q96DB2+P56524+Q9UKV0+Q969S8). As to the kind of experiment: Inhibition of HDAC in human RS4-11 cells assessed as upregulation of histone H3 acetylation by Western blot assay. The class given is cell-based. In general terms: Immunoblotting shows a protein as a band on a membrane.

For experiment [2], the target named is T2, Protein deacetylase HDAC6 (Homo sapiens, UniProt Q9UBN7).
T2 sequence (Q9UBN7 whole entry): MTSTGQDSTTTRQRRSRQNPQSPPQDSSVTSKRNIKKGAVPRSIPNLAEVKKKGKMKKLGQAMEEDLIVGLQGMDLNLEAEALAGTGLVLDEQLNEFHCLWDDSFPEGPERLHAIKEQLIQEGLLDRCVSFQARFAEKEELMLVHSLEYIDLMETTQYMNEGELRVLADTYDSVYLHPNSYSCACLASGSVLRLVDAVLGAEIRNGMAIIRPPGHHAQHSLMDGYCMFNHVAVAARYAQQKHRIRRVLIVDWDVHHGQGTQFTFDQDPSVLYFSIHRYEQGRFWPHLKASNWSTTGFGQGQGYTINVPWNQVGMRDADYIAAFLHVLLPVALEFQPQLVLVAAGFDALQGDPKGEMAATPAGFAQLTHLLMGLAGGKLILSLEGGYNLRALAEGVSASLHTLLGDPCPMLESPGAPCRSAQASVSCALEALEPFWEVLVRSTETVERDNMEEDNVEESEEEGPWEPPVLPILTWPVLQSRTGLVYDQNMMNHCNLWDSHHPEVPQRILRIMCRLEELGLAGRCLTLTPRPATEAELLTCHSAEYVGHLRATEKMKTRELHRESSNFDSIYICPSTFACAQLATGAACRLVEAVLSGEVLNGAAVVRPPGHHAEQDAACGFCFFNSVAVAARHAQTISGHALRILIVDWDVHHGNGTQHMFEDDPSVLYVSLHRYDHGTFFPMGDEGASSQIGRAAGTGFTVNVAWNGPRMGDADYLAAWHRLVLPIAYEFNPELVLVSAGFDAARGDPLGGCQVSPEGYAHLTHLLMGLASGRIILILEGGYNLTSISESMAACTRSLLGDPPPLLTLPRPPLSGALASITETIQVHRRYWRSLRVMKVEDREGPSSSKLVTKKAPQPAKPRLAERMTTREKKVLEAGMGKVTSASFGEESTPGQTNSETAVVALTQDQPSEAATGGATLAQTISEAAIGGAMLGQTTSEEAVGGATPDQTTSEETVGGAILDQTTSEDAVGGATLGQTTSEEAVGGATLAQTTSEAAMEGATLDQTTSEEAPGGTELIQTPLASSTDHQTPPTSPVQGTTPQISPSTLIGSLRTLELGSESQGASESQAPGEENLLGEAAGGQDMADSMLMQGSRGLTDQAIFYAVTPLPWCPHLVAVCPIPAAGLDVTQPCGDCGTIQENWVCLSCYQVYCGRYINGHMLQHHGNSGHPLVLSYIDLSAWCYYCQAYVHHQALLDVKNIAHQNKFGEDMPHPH
Put plainly: Inhibition of HDAC6 (unknown origin) using BocLys(acetyl)-AMC as substrate incubated for 1 hr by fluorescence plate reader analysis.

Experiment [3] deals with RS4-11. Put plainly: Induction of apoptosis in human RS4-11 cells assessed as downregulation of Bcl-2 level. The class given is functional, cell-based. The note with it: dose 1-10 µM.
The test system of experiment [4] is RS4-11. Put plainly: Induction of apoptosis in human RS4-11 cells assessed as cleaved caspase-9 release at 1 to 10 uM. The experiment is classed as functional, cell-based. The note with it: dose 1-10 µM.
For experiment [5], the target named is T1, Histone deacetylase (Homo sapiens). As to the kind of experiment: Inhibition of HDAC in human RS4-11 cells assessed as upregulation of histone H4 acetylation at 1 to 10 uM by Western blot assay. The note with it: dose 1-10 µM. The experiment is classed as cell-based.
Experiment [6] relates to RS4-11. Put plainly: Induction of apoptosis in human RS4-11 cells assessed as upregulation of Bax level. The experiment is classed as functional, cell-based. Particulars: dose 1-10 µM.
In experiment [7] the test system is RS4-11. Put plainly: Induction of apoptosis in human RS4-11 cells assessed as cleavage of caspase-3 at 1 to 10 uM. The experiment is classed as functional, cell-based. The note with it: dose 1-10 µM.
Experiment [8] concerns A549. As to the kind of experiment: Antiproliferative activity against human A549 cells assessed as cell growth inhibition at 5 uM incubated for 48 hrs by CCK-8 assay. The class given is functional, cell-based. (In general: Formazan colour is commonly taken as a measure of viable cells.)
The test system of experiment [9] is RS4-11. Put plainly: Antiproliferative activity against human RS4-11 cells assessed as cell growth inhibition incubated for 48 hrs by CCK-8 assay. The class given is functional, cell-based. The note with it: RS4-11, 48 h.
Experiment [10] concerns the target T3, Histone deacetylase 7 (Homo sapiens, UniProt Q8WUI4).
T3 sequence (Q8WUI4 whole entry): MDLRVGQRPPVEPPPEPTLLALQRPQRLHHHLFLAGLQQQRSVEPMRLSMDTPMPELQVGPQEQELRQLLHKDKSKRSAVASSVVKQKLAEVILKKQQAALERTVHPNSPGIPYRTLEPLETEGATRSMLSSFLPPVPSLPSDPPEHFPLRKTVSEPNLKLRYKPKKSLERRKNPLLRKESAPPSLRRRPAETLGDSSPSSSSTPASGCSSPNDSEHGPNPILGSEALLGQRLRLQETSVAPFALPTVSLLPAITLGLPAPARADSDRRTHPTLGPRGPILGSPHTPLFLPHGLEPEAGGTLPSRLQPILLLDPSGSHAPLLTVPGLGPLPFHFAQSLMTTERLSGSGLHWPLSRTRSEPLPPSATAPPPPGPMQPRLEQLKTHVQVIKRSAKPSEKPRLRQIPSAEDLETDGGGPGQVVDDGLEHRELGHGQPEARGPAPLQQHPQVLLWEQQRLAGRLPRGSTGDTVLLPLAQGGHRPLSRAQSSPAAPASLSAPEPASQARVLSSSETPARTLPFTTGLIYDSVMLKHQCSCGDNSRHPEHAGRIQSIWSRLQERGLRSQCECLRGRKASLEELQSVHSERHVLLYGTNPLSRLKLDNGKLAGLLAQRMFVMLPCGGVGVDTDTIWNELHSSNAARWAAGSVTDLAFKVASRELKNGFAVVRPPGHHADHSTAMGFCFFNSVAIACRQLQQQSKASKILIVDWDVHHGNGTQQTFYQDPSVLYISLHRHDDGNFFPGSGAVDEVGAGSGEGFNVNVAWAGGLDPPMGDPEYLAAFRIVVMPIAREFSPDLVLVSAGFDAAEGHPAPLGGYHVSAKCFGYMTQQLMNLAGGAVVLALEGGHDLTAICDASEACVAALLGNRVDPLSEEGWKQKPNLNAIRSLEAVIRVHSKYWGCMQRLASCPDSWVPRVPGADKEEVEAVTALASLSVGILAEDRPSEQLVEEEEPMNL
As to the kind of experiment: Inhibition of HDAC7 in human HeLa cells nuclear extract using BocLys(acetyl)-AMC as substrate incubated for 1 hr by fluorescence plate reader analysis. The experiment is classed as subcellular, Nucleus.

For experiment [11], the target named is T1, Histone deacetylase (Homo sapiens). As to the kind of experiment: Inhibition of HDAC in human RS4-11 cells assessed as upregulation of histone H3 acetylation at 1 to 10 uM by Western blot assay. The class given is cell-based. The note with it: dose 1-10 µM.
Experiment [12] concerns the target Histone deacetylase 1 (Homo sapiens, UniProt Q13547). Put plainly: Binding affinity to HDAC1 (unknown origin).
In experiment [13] the test system is U-266. As to the kind of experiment: Antiproliferative activity against human U-266 cells assessed as cell growth inhibition incubated for 48 hrs by CCK-8 assay. The class given is functional, cell-based. The note with it: U-266, 48 h.
The test system of experiment [14] is HeLa. Put plainly: Antiproliferative activity against human HeLa cells assessed as cell growth inhibition at 5 uM incubated for 48 hrs by CCK-8 assay. The class given is functional, cell-based.

Chain of Histone deacetylase 1 (Q13547 whole entry): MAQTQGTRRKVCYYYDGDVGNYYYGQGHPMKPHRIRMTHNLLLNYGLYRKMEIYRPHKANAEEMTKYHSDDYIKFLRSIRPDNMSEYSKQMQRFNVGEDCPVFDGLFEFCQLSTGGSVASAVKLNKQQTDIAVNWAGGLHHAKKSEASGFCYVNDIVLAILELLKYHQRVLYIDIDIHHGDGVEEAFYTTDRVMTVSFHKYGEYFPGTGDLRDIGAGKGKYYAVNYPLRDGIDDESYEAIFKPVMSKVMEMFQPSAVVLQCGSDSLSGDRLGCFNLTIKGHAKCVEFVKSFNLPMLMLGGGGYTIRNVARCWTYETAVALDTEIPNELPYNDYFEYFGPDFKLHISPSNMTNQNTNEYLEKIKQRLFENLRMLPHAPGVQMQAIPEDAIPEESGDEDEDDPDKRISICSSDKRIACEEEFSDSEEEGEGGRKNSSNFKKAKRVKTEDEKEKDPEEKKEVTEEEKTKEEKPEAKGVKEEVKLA

Turning to `Nc1cc(F)ccc1NC(=O)c1ccc(CNc2cccc3c2C(=O)N(C2CCC(=O)NC2=O)C3=O)cc1` (stereo not drawn), the inhibition result in experiment [1] was “Active”. In addition, the IC50 (as a rule, the concentration that gives 50% inhibition) was > 2000 nM in [2], 2110 nM in [9], > 2000 nM in experiment [10] and 2940 nM in [13]. Besides, the Activity entry in experiment [3] and in experiment [6] was “Dose-Dependent Effect” in each case. In addition, the result in [4], in [5], in [7] and in experiment [11] was Active. The outcome in [8] and in [14] was inactive. Also, the Kd (in general, the equilibrium constant for the complex coming apart) in [12] was 16700 nM.

`Nc1ccccc1NC(=O)c1ccc(CNc2cccc3c2C(=O)N(C2CCC(=O)NC2=O)C3=O)cc1` (stereo not drawn): the inhibition result in experiment [1] was “Active”. For the same compound, the IC50 in experiment [2] is > 2000 nM; in experiment [9] it was 1570 nM; in experiment [10], > 2000 nM; in [13] it was 4890 nM. Also, the Activity entry in experiment [3] and in experiment [6] was “Dose-Dependent Effect” in each case. For the same compound, the outcome in experiment [4], in experiment [5], in [7] and in experiment [11] was Active. Further, the outcome in experiment [8] and in experiment [14] was inactive. This compound yielded a dissociation constant Kd in experiment [12] of 41300 nM.

Values taken from ChEMBL document CHEMBL5532657, “Serendipitous discovery of Class I HDAC inhibitors from rational design of molecular glue degraders targeting HDAC” (Eur J Med Chem, 2024).
